ChEMBL document CHEMBL6134874, “Identification of Nitric Oxide Donating Dasatinib Derivatives with Intraocular Pressure Lowering and Senolytic Activities” (J Med Chem, 2025)
Calls of active or inactive are those of the source. No cut-off for these calls is given here.

Experiments:
HTM [1] = experiment: Upregulation of NO level in HTM cells at 5 uM incubated for 12 hrs by DAF-FM DA fluorescent probe based flow cytometry analysis; format: functional, cell-based; details: Homo sapiens
HTM [2] = experiment: Upregulation of cGMP level in HTM cells at 5 uM incubated for 24 hrs by ELISA method; format: functional, cell-based; details: Homo sapiens
HTM [3] = experiment: Anti-glaucoma activity in BLEO-induced senescence in HTM cells assessed as decrease in proportion of SA-beta-Gal positive cells at 5 uM measured for 48 hrs by senescence-associated galactosidase staining based microscopic analysis; format: functional, cell-based; details: Homo sapiens
Mus musculus [4] = experiment: Anti-glaucoma activity against magnetic microbead-induced ocular hypertensive COHT C57BL/6J mouse model assessed as reduction in intraocular pressure administered as 10 mM eye drop measured after 2 to 4 hrs; format: functional, organism-based; details: time 2-4 hrs
Mus musculus [5] = experiment: Anti-glaucoma activity against magnetic microbead-induced ocular hypertensive COHT C57BL/6J mouse model assessed as reduction in intraocular pressure administered as 10 mM eye drop measured after 8 hrs; format: functional, organism-based
Mus musculus [6] = experiment: (§1) Anti-glaucoma activity against magnetic microbead-induced ocular hypertensive COHT C57BL/6J mouse model assessed as reduction in fraction of SA-beta-Gal positive area in retina at 10 mM administered eye drop thrice a day for 10 days by SA-beta Gal staining based […]; format: functional, organism-based; details: time 10.0 day
Mus musculus [7] = experiment: as §1, with “in number” for “in fraction”, “of SA-betaGal” for “of SA-beta-Gal”, “positive cells per unit” for “positive”, “area of whole flat-mount” for “area in”; format: functional, organism-based; details: time 10.0 day
Mus musculus [8] = experiment: Neuroprotective activity against magnetic microbead-induced ocular hypertensive COHT C57BL/6J mouse model assessed as protection effect on retinal ganglion cells (RGC) at 10 mM administered eye drop thrice a day for 10 days; format: functional, organism-based; details: time 10.0 day
Mus musculus [9] = experiment: Neuroprotective activity against magnetic microbead-induced ocular hypertensive COHT C57BL/6J mouse model assessed as improvement in N1 wave amplitude at 10 mM administered eye drop thrice a day for 10 days […]; format: functional, organism-based; details: time 10.0 day
Mus musculus [10] = experiment: Neuroprotective activity against magnetic microbead-induced ocular hypertensive COHT C57BL/6J mouse model assessed as improvement in peak time of N1 wave at 10 mM administered eye drop thrice a day for 10 days […]; format: functional, organism-based; details: time 10.0 day
Mus musculus [11] = experiment: Neuroprotective activity against magnetic microbead-induced ocular hypertensive COHT C57BL/6J mouse model assessed as improvement in visual acuity of mouse at 10 mM administered eye drop thrice a day for 10 days by Optokinetic Reflex Assay; format: functional, organism-based; details: time 10.0 day
Mus musculus [12] = experiment: Neuroprotective activity against magnetic microbead-induced ocular hypertensive COHT C57BL/6J mouse model assessed as increase in retinal ganglion cells (RGC) survival at 10 mM administered eye drop thrice a day for 10 days by immunofluorescence staining based analysis; format: functional, organism-based; details: time 10.0 day
[13] = Antiproliferative activity against mouse MEF cells assessed as inhibition of cell proliferation measured after 72 hrs by CCK-8 method; format: functional, cell-based
[14] = Inhibition of senescence in mouse MEF cells measured after 72 hrs by CCK-8 method; format: functional, cell-based
[15] = Senolytics index ratio of IC50 for antiproliferative activity against mouse MEF cells to IC50 for inhibition of senescence in mouse MEF cells; format: functional
[16] = Toxicity in C57BL/6J mouse assessed as effect on discernible conjunctival hyperemia administered as 10 mM eye drop measured up to 4 hrs; details: in vivo, topical_or_ocular, 10000 µM
Mus musculus [17] = experiment: Anti-glaucoma activity against magnetic microbead-induced ocular hypertensive COHT C57BL/6J mouse model assessed as intraocular pressure lowering efficacy administered as 10 mM eye drop measured after 4 hrs; format: functional
Mus musculus [18] = experiment: Anti-glaucoma activity against magnetic microbead-induced ocular hypertensive COHT C57BL/6J mouse model assessed as reduction in intraocular pressure administered as 10 mM eye drop measured after 2 to 8 hrs; format: functional, organism-based; details: time 2-8 hrs

| SMILES | IC50 ([13]; Mus musculus, MEF, 72 h) | IC50 ([14]; Mus musculus, MEF, 72 h) | Ratio IC50 [15] | also measured |
| --- | --- | --- | --- | --- |
| Cc1nc(Nc2ncc(C(=O)Nc3c(C)cccc3Cl)s2)cc(N2CCN(CCOC(=O)CCC(=O)OCCOCCOc3no[n+]([O-])c3S(=O)(=O)c3ccccc3)CC2)n1 [listing 1 of 2 here] | – | – | – | Activity (HTM [1]): Active; Activity (HTM [2]): Active; Activity (HTM [3]): Active; Activity (Mus musculus [4]): Active; Activity (Mus musculus [5]): inactive; Activity (Mus musculus [6]): Active; Activity (Mus musculus [7]): Active; Activity (Mus musculus [8]): Active; Compound Showed Significant Effect Than Dasatinib; Activity (Mus musculus [9]): Active; Activity (Mus musculus [10]): Active; Activity (Mus musculus [11]): Active; Activity (Mus musculus [12]): Active; Compound Showed More Pronounced Effect Then Dasatinib |
| Cc1nc(Nc2ncc(C(=O)Nc3c(C)cccc3Cl)s2)cc(N2CCN(CCOC(=O)CCC(=O)OCCCO[N+](=O)[O-])CC2)n1 | 1.42 µM | 0.45 µM | 3.13 | – |
| CS(=O)(=O)O.CS(=O)(=O)O.CS(=O)(=O)O.Cc1nc(Nc2ncc(C(=O)Nc3c(C)cccc3Cl)s2)cc(N2CCN(CCOC(=O)CCC(=O)OCCOCCOc3no[n+]([O-])c3S(=O)(=O)c3ccccc3)CC2)n1 | – | – | 3.25 | IC50 ([13]; mef): 1.23 µM; IC50 ([14]; mef): 0.38 µM; Activity [16]: Non-toxic; Activity (Mus musculus [17]): 3.6 mmHg |
| Cc1nc(Nc2ncc(C(=O)Nc3c(C)cccc3Cl)s2)cc(N2CCN(CCOC(=O)CCC(=O)OCCO[N+](=O)[O-])CC2)n1 | 1.75 µM | 0.41 µM | 4.3 | – |
| Cc1nc(Nc2ncc(C(=O)Nc3c(C)cccc3Cl)s2)cc(N2CCN(CCOC(=O)CCC(=O)OCCOCCOc3no[n+]([O-])c3S(=O)(=O)c3ccccc3)CC2)n1 [listing 2 of 2 here] | 1.1 µM | 0.48 µM | 2.28 | – |
| Cc1nc(Nc2ncc(C(=O)Nc3c(C)cccc3Cl)s2)cc(N2CCN(CCO[N+](=O)[O-])CC2)n1 | 1.53 µM | 1.19 µM | 1.29 | Activity (HTM [1]): Active |
| Cc1nc(Nc2ncc(C(=O)Nc3c(C)cccc3Cl)s2)cc(N2CCN(CCOC(=O)CCC(=O)OCCCCO[N+](=O)[O-])CC2)n1 | 1.78 µM | 1.07 µM | 1.67 | – |
| Cc1nc(Nc2ncc(C(=O)Nc3c(C)cccc3Cl)s2)cc(N2CCN(CCOC(=O)CCC(=O)OCCOc3no[n+]([O-])c3C)CC2)n1 | 1.34 µM | 0.49 µM | 2.73 | – |
| Cc1nc(Nc2ncc(C(=O)Nc3c(C)cccc3Cl)s2)cc(N2CCN(CCOC(=O)CCC(=O)O[C@@H]3CO[C@H]4[C@@H]3OC[C@@H]4O[N+](=O)[O-])CC2)n1 | 0.33 µM | 0.54 µM | 0.61 | – |
| Cc1nc(Nc2ncc(C(=O)Nc3c(C)cccc3Cl)s2)cc(N2CCN(CCOC(=O)CCC(=O)OCCCCCO[N+](=O)[O-])CC2)n1 | 1.31 µM | 3.29 µM | 0.4 | – |
| Cc1nc(Nc2ncc(C(=O)Nc3c(C)cccc3Cl)s2)cc(N2CCN(CCOC(=O)CCC(=O)OCCCCOc3no[n+]([O-])c3S(=O)(=O)c3ccccc3)CC2)n1 | 2.35 µM | 1.24 µM | 1.9 | – |
| Cc1nc(Nc2ncc(C(=O)Nc3c(C)cccc3Cl)s2)cc(N2CCN(CCOC(=O)COc3no[n+]([O-])c3C)CC2)n1 | 1.28 µM | 0.52 µM | 2.45 | – |
| Cc1nc(Nc2ncc(C(=O)Nc3c(C)cccc3Cl)s2)cc(N2CCN(CCO)CC2)n1 [DASATINIB ANHYDROUS] | 2.85 µM | 0.51 µM | 5.55 | Activity (HTM [3]): Active; Activity [16]: Non-toxic; Activity (Mus musculus [18]): inactive; Activity (Mus musculus [6]): Active; Activity (Mus musculus [7]): Active; Activity (Mus musculus [8]): Active; Activity (Mus musculus [9]): Active; Activity (Mus musculus [10]): Active; Activity (Mus musculus [11]): inactive; Activity (Mus musculus [12]): Active |
| CS(=O)(=O)O.CS(=O)(=O)O.CS(=O)(=O)O.Cc1nc(Nc2ncc(C(=O)Nc3c(C)cccc3Cl)s2)cc(N2CCN(CCOC(=O)CCC(=O)OCCCCOc3no[n+]([O-])c3S(=O)(=O)c3ccccc3)CC2)n1 | – | – | 1.76 | IC50 ([13]; mef): 1.31 µM; IC50 ([14]; mef): 0.75 µM |
